# Measured values from PubChem BioAssay (NCI).
#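 Briefly, cells in 96-well plates were exposed to five compound concentrations for 48 h, and endpoints were estimated by linear interpolation. GI50 = concentration required for 50% inhibition of growth. TGI: concentration producing complete growth inhibition.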
# How the values were obtained:
# Experiment in all cases: NCI tumour cell line growth inhibition, 48 h
# [1] = tested on: NCI-H460 lung
# [2] = tested on: NCI-H226 lung
# [3] = tested on: SK-MEL-28 melanoma
# [4] = tested on: RXF 393 renal
# [5] = tested on: OVCAR-8 ovarian
# [6] = tested on: U251 CNS
# [7] = tested on: KM12 colon
# [8] = tested on: SK-OV-3 ovarian
# [9] = tested on: SF-295 CNS
# [10] = tested on: HOP-92 NSCLC
# [11] = tested on: M19-MEL melanoma
# [12] = tested on: A498 renal
# [13] = tested on: NCI-H522 lung
# [14] = tested on: HT29 colon
# [15] = tested on: SR leukemia
# [16] = tested on: M14 melanoma
# [17] = tested on: OVCAR-5 ovarian
# [18] = tested on: CCRF-CEM leukemia
# [19] = tested on: MOLT-4 leukemia
# [20] = tested on: HCT-116 colon
# [21] = tested on: SF-268 CNS
# [22] = tested on: UACC-257 melanoma
# [23] = tested on: IGROV1 ovarian
# [24] = tested on: UACC-62 melanoma
# [25] = tested on: UO-31 renal
# [26] = tested on: A549 NSCLC
# [27] = tested on: SNB-19 CNS
# [28] = tested on: SNB-78 CNS
# [29] = tested on: HOP-62 NSCLC
# [30] = tested on: DMS 273 small cell lung
# [31] = tested on: TK-10 renal
# [32] = tested on: HL-60(TB) leukemia
# [33] = tested on: EKVX NSCLC
# [34] = tested on: HCC-2998 colon
# [35] = tested on: COLO 205 colon
# [36] = tested on: 786-0 renal
# [37] = tested on: SF-539 CNS
# [38] = tested on: CAKI-1 renal
# [39] = tested on: OVCAR-3 ovarian
# [40] = tested on: SK-MEL-5 melanoma
# [41] = tested on: ACHN renal
# [42] = tested on: LOX IMVI melanoma
# [43] = tested on: SN12C renal
# [44] = tested on: K-562 leukemia
# [45] = tested on: MALME-3M melanoma
# [46] = tested on: RPMI-8226 leukemia
# [47] = tested on: OVCAR-4 ovarian
# [48] = tested on: SW-620 colon
# [49] = tested on: NCI-H23 lung
# [50] = tested on: SK-MEL-2 melanoma
# [51] = tested on: SNB-75 CNS
# [52] = tested on: HCT-15 colon
# [53] = tested on: KM20L2 colon
# [54] = tested on: DLD-1 colon
compound,measurement,setting,value
CCSc1c2ccccc2nc2c(OC)ccc(OC)c12,TGI,[1],41.7 µM
same,TGI,[2],55.7 µM
same,TGI,[3],40 µM
same,TGI,[4],33.2 µM
same,TGI,[5],44.9 µM
same,TGI,[6],44.9 µM
same,TGI,[7],63.5 µM
same,TGI,[8],63.2 µM
same,TGI,[9],66.2 µM
same,TGI,[10],56.5 µM
same,TGI,[11],37.1 µM
same,TGI,[12],81.7 µM
same,TGI,[13],> 100 µM
same,TGI,[14],63.4 µM
same,TGI,[15],62.5 µM
same,TGI,[16],95.8 µM
same,TGI,[17],97.1 µM
same,TGI,[18],> 100 µM
same,TGI,[19],73 µM
same,TGI,[20],37.9 µM
same,TGI,[21],55.6 µM
same,TGI,[22],42.8 µM
same,TGI,[23],63.4 µM
same,TGI,[24],37.9 µM
same,TGI,[25],59.8 µM
same,TGI,[26],> 100 µM
same,TGI,[27],72.4 µM
same,TGI,[28],56.7 µM
same,TGI,[29],97.2 µM
same,TGI,[30],47.9 µM
same,TGI,[31],85 µM
same,TGI,[32],52.9 µM
same,TGI,[33],> 100 µM
COc1cccc(C=NC23CC4CC(CC(C4)C2)C3)c1,TGI,[1],> 100 µM
same,TGI,[34],> 100 µM
same,TGI,[35],> 100 µM
same,TGI,[36],> 100 µM
same,TGI,[2],> 100 µM
same,TGI,[3],> 100 µM
same,TGI,[4],> 100 µM
same,TGI,[5],> 100 µM
same,TGI,[37],> 100 µM
same,TGI,[6],> 100 µM
same,TGI,[38],> 100 µM
same,TGI,[39],> 100 µM
same,TGI,[40],> 100 µM
same,TGI,[7],> 100 µM
same,TGI,[8],> 100 µM
same,TGI,[9],> 100 µM
same,TGI,[10],> 100 µM
same,TGI,[41],> 100 µM
same,TGI,[42],> 100 µM
same,TGI,[11],> 100 µM
same,TGI,[12],> 100 µM
same,TGI,[13],> 100 µM
same,TGI,[43],> 100 µM
same,TGI,[14],> 100 µM
same,TGI,[44],> 100 µM
same,TGI,[45],> 100 µM
same,TGI,[46],> 100 µM
same,TGI,[15],> 100 µM
same,TGI,[47],> 100 µM
same,TGI,[16],> 100 µM
same,TGI,[48],> 100 µM
same,TGI,[17],> 100 µM
same,TGI,[18],> 100 µM
same,TGI,[19],> 100 µM
same,TGI,[20],> 100 µM
same,TGI,[21],> 100 µM
same,TGI,[49],> 100 µM
same,TGI,[50],> 100 µM
same,TGI,[22],> 100 µM
same,TGI,[23],> 100 µM
same,TGI,[24],> 100 µM
same,TGI,[25],> 100 µM
same,TGI,[26],> 100 µM
same,TGI,[51],> 100 µM
same,TGI,[52],> 100 µM
same,TGI,[27],> 100 µM
same,TGI,[28],> 100 µM
same,TGI,[29],> 100 µM
same,TGI,[30],> 100 µM
same,TGI,[53],> 100 µM
same,TGI,[31],> 100 µM
same,TGI,[32],> 100 µM
same,TGI,[33],> 100 µM
O=C([O-])C([O-])C([O-])C(=O)[O-].[Co+3].c1ccc(-c2ccnc3c2ccc2c(-c4ccccc4)ccnc23)cc1.c1ccc(-c2ccnc3c2ccc2c(-c4ccccc4)ccnc23)cc1.c1ccc(-c2ccnc3c2ccc2c(-c4ccccc4)ccnc23)cc1,TGI,[2],0.27 µM
same,TGI,[3],1.96 µM
same,GI50,[38],0.0339 µM
same,TGI,[38],0.235 µM
same,TGI,[13],0.128 µM
same,TGI,[15],0.207 µM
same,TGI,[17],1.65 µM
same,TGI,[54],1.6 µM
same,TGI,[24],0.407 µM
same,TGI,[25],0.0823 µM
same,TGI,[51],> 100 µM
same,TGI,[53],0.291 µM
